Results: US20250288634A1, “Fenugreek Formulation for Lowering Blood Glucose and Weight Loss” (priority 2024, published 2025)
Like-named read-outs stand apart in the source and are kept apart here.

Columns and labels:
[1] = Clinical Case Example #2: regulating blood glucose levels, body weight, tolerability; assay type: in vivo, human; settings: within just a few days of using, person with type-2 diabetes on metformin
Experimental: Clinical Case Example #2: The therapeutic composition (i.e. fenugreek formulation) used in Clinical Case Example #1 above was also tested for efficacy on regulating blood glucose levels. The subject was a person, height of 5 feet 6 inches and with baseline a body weight of about 175 lbs. Despite long-term management of their type-2 diabetes with metformin, they still had blood glucose readings almost continuously in the low to high 200s mg/dL (e.g. 204, 228, 277) with hemoglobin A1C of 7.2%. A typical fasting blood sugar for them was 189.
Due to consistently high blood glucose levels, their endocrinologist prescribed Januvia (sitagliptin, a dipeptidyl peptidase-4 (DPP-4) inhibitor). […]
When sufficiently recovered from the pancreatitis, they started using the fenugreek formulation of this invention (combination of fenugreek, curcumin, and chromium picolinate) while they continued taking metformin. Within a few days of starting the fenugreek formulation, their blood glucose readings declined from well over 200 for most of the day, to around 180, with excursions into the mid-200s only after high-sugar meals (whereas prior to this regimen, their blood glucose was in the 200s at a steady state). Occasionally, while on the fenugreek formulation regimen, they had blood glucose readings down to 110. This was the first time in half a decade that the subject had readings as low as 110. […]

[2] = cited from earlier work
[3] = target: dipeptidyl-peptidase 4 (DPP4) (Homo sapiens, UniProt P27487); settings: cited from earlier work
dipeptidyl-peptidase 4 (DPP4), sequence (P27487 whole entry, species assumed): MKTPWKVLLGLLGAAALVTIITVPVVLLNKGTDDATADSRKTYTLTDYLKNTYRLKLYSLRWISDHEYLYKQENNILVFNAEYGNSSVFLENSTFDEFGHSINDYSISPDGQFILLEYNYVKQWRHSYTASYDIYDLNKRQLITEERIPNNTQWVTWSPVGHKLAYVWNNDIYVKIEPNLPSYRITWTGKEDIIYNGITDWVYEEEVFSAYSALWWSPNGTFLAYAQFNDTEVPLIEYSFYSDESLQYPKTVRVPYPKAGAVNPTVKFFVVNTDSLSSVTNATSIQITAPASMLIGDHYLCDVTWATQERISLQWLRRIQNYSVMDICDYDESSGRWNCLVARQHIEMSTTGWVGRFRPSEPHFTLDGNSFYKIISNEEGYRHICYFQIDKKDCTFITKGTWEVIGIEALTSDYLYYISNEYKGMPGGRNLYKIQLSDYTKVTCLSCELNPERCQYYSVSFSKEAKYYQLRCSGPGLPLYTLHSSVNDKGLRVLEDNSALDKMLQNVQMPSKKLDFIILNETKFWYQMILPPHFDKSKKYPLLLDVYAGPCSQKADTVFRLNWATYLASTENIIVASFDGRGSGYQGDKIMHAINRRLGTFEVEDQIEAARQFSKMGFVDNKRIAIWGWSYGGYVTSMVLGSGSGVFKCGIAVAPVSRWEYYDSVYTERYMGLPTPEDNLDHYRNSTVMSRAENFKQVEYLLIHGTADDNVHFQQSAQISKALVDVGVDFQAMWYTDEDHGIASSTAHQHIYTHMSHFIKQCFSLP

N[C@@H](CC(=O)N1CCn2c(nnc2C(F)(F)F)C1)Cc1cc(F)c(F)cc1F [Januvia, sitagliptin]
adverse events [1]: diarrhea and signs of acute pancreatitis

[Cr] [chromium]
safety ([2]; 200-1,000 μg daily for up to two years): used safely | safety ([2]; up to 1,000 μg daily for up to six months): used safely

COc1cc(/C=C/C(=O)CC(=O)/C=C/c2ccc(O)c(OC)c2)ccc1O [curcumin]
action on DPP4 [3]: inhibits
